{"source": "patent US20060189576A1", "about": "“Substituted vitamin d analogues and their therapeutic uses” (priority 2003, published 2006)", "key": {"[1]": {"test_system": "MCF-7 cells", "assay": "MCF-7 cell proliferation ([3H]thymidine incorporation)", "format": "cell-based", "conditions": "for IN VITRO STUDIES MCF-7: antiproliferative action, percentage activity vs 1α,25(OH)2D3 (=100%); for Antiproliferative activity on MCF-7 cells: percentage activity (at 50% of the dose response) vs 1α,25(OH)2D3 (=100%); for antiproliferative effect (in words) / antiproliferative activity, times that of 1α,25(OH)2D3: MCF-7 cells", "procedure": "To evaluate the effect of on cell proliferation, malignant MCF-7 cells were cultured in DMEM/nut. mix. […] Cultures were maintained at 37° C. in a humidified atmosphere of 5% CO2 in air. MCF-7 cells were seeded at 5×10^3 cells/well in the above described medium in 96-well microtiter plates in a final volume of 0.2 ml per well. Triplicate cultures were performed. […] Then, 1 μCi [^3H]thymidine was added to each well and cells were harvested after 4 h incubation with a Packard harvester and measured by the Packard Topcount System (Packard, Meriden, USA)."}, "[2]": {"conditions": "for Femur calcium: NMRI mice, 7 consecutive days; for IN VIVO STUDIES Osteocalcin serum: mice, daily intraperitoneal injection 7 consecutive days, percentage activity vs 1α,25(OH)2D3 (=100%); for IN VIVO STUDIES Calcium serum / IN VIVO STUDIES Calcium urine / Serum calcium in mice: ip"}, "[3]": {"test_system": "HL-60 cells", "assay": "HL-60 cell differentiation (NBT reduction assay)", "format": "cell-based", "conditions": "for IN VITRO STUDIES HL 60: potency to differentiate HL 60 cells, percentage activity vs 1α,25(OH)2D3 (=100%)", "procedure": "To evaluate the effect on cell differentiation HL-60 cells were seeded at 4×10^4 cells/ml in 25 cm^2 Falcon tissue chambers using RPMI 1640 medium supplemented with 20% FCS and gentamycin (50 μg/ml) in a final volume of 5 ml. Cultures were maintained at 37° C. in a humidified atmosphere of 5% CO2 in air. […] After 4 days of culture, the dishes were shaken to lose adherent cells. Cells were washed twice in RPMI, counted and assayed for differentiation markers (NBT reduction assay). Superoxide production was measured as NBT reducing activity as described previously (Ostrem V. K et al. Proc Natl Acad Sci USA 84: 2610-2614, 1987). HL-60 cells at 1×10^6/ml were mixed with an equal volume of freshly prepared solution of phorbol 12-myristate 13-acetate (200 ng/ml) and […] and incubated for 30 min at 37° C. The percentage of cells containing black formazan deposits was determined using a hemacytometer."}, "[4]": {"target": "T1, vitamin D receptor (Sus scrofa, UniProt A3RGC1)", "T1 sequence (A3RGC1 1-427)": "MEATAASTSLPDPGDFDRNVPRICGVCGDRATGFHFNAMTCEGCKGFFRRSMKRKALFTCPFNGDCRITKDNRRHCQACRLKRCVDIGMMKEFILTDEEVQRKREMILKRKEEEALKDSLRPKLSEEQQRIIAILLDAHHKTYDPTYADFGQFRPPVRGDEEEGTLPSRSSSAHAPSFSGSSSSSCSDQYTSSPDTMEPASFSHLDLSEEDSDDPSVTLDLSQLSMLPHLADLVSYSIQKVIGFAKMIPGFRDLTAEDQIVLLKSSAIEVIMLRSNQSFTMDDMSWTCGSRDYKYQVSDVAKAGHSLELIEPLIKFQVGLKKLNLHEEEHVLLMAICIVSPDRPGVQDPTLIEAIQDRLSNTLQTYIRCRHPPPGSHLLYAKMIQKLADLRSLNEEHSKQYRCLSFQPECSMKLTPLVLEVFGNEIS", "conditions": "percentage activity (at 50% of the dose response) in comparison with 1α,25(OH)2D3 (=100%)", "quoted_text": "The incubation was performed at 4° C. for 20 h and phase separation was obtained by addition of dextran-coated charcoal."}, "[5]": {"target": "T2, hDBP (Homo sapiens, UniProt P02774)", "T2 sequence (P02774 17-474)": "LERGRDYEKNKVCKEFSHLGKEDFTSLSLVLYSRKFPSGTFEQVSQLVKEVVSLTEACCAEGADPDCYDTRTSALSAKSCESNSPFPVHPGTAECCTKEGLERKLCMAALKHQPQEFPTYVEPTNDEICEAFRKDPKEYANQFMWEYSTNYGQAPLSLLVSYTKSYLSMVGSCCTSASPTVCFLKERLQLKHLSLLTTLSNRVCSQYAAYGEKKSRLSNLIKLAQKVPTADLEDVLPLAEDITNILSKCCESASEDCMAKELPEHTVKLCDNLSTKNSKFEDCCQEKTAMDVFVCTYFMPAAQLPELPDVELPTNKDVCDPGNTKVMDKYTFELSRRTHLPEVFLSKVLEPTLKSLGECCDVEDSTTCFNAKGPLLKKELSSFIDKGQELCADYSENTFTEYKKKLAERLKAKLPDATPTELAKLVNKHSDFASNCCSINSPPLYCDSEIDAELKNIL", "assay": "Affinity for human DBP: competition with [3H]1α,25(OH)2D3", "format": "binding", "conditions": "percentage activity (at 50% of the dose response) in comparison with 1α,25(OH)2D3 (=100%)", "procedure": "Phase separation was then obtained by the addition of 0.5 ml of cold dextran-coated charcoal."}}, "note": "Read-outs that look alike come from different tables or passages of the source."}
{"smiles": "C=C1/C(=C\\C=C2/CCC[C@]3(C)[C@@H]([C@H](C)CCCC(C)(C)O)CC[C@@H]23)C[C@@H](O)C[C@@H]1O", "note": "[1α,25(OH)2D3, 1α,25-dihydroxyvitamin D3, reference compound]", "values": [{"measurement": "IN VITRO STUDIES MCF-7", "setting": "[1]", "result": 100, "unit": "%"}, {"measurement": "Antiproliferative activity on MCF-7 cells", "setting": "[1]", "result": 100, "unit": "%"}, {"measurement": "Femur calcium", "setting": "[2]; 0.1 μg/kg/d intraperitoneally", "result": "8.9 ± 0.50", "unit": "mg"}, {"measurement": "Femur calcium", "setting": "[2]; 0.2 μg/kg/d intraperitoneally", "result": "9.23 ± 0.31", "unit": "mg"}, {"measurement": "Femur calcium", "setting": "[2]; 0.4 μg/kg/d intraperitoneally", "result": "8.75 ± 0.15", "unit": "mg"}, {"measurement": "IN VIVO STUDIES Osteocalcin serum", "setting": "[2]", "result": 100, "unit": "%"}, {"measurement": "IN VIVO STUDIES Calcium serum", "setting": "[2]; mouse, in vivo", "result": 100, "unit": "%"}, {"measurement": "IN VIVO STUDIES Calcium urine", "setting": "[2]; mouse, in vivo", "result": 100, "unit": "%"}, {"measurement": "Serum calcium in mice", "setting": "[2]; mouse, in vivo", "result": 100, "unit": "%"}, {"measurement": "IN VITRO STUDIES HL 60", "setting": "[3]", "result": 100, "unit": "%"}]}
{"smiles": "C[C@H](CCCC(C)(C)O)[C@H]1CC[C@@H]2/C(=C/C=C3C[C@@H](O)C[C@H](O)C3)CCC[C@@]21C", "note": "[14-epi-19-nor-1α,25(OH)2D3, reference compound]", "values": [{"measurement": "AFFINITY STUDIES VDR", "setting": "[4]", "result": 19, "unit": "%"}, {"measurement": "IN VITRO STUDIES MCF-7", "setting": "[1]", "result": 30, "unit": "%"}, {"measurement": "times less active than the parent compound to inhibit MCF-7 cell proliferation", "setting": "[1]; parent compound 1α,25(OH)2D3", "result": 3, "unit": "times"}, {"measurement": "AFFINITY STUDIES DBP", "setting": "[5]", "result": 15, "unit": "%"}, {"measurement": "IN VIVO STUDIES Calcium serum", "setting": "[2]; mouse, in vivo", "result": 0.3, "unit": "%"}, {"measurement": "IN VIVO STUDIES Calcium urine", "setting": "[2]; mouse, in vivo", "result": 0.4, "unit": "%"}, {"measurement": "prodifferentiating effect (in words)", "setting": "[3]; HL 60 cells", "result": "half as potent as the parent compound"}, {"measurement": "IN VITRO STUDIES HL 60", "setting": "[3]", "result": 50, "unit": "%"}]}
{"smiles": "CC(CCCC(C)(C)O)C1CCC2C(=CC=C3CC(O)C(C)C(O)C3)CCCC21C", "note": "(stereo not drawn) [Compound 101, 2β-methyl-19-nor-1α,25-dihydroxyvitamin D3]", "values": [{"measurement": "AFFINITY STUDIES VDR", "setting": "[4]", "result": 75, "unit": "%"}, {"measurement": "antiproliferative effect (in words)", "setting": "[1]", "result": "less potent than 1α,25(OH)2D3"}, {"measurement": "IN VITRO STUDIES MCF-7", "setting": "[1]", "result": 80, "unit": "%"}, {"measurement": "AFFINITY STUDIES DBP", "setting": "[5]", "result": 9, "unit": "%"}, {"measurement": "further reduction of calcemic activity by the 2β counterpart", "setting": "[2]; mouse, in vivo", "result": 80, "unit": "fold"}, {"measurement": "IN VIVO STUDIES Calcium serum", "setting": "[2]; mouse, in vivo", "result": 0.5, "unit": "%"}, {"measurement": "prodifferentiating effect (in words)", "setting": "[3]; HL 60 cells", "result": "less potent than 1α,25(OH)2D3"}, {"measurement": "IN VITRO STUDIES HL 60", "setting": "[3]", "result": 70, "unit": "%"}]}
{"smiles": "CC(CCCC(C)(C)O)C1CCC2C(=CC=C3CC(O)C(C)C(O)C3)CCCC21C", "note": "(stereo not drawn) [Compound 102, 2α-methyl-19-nor-1α,25-dihydroxyvitamin D3]", "values": [{"measurement": "AFFINITY STUDIES VDR", "setting": "[4]", "result": 90, "unit": "%"}, {"measurement": "antiproliferative activity, times that of 1α,25(OH)2D3", "setting": "[1]", "result": 4, "unit": "times"}, {"measurement": "antiproliferative effect (in words)", "setting": "[1]", "result": "very potent"}, {"measurement": "IN VITRO STUDIES MCF-7", "setting": "[1]", "result": 400, "unit": "%"}, {"measurement": "AFFINITY STUDIES DBP", "setting": "[5]", "result": 50, "unit": "%"}, {"measurement": "IN VIVO STUDIES Osteocalcin serum", "setting": "[2]", "result": 15, "unit": "%"}, {"measurement": "IN VIVO STUDIES Calcium serum", "setting": "[2]; mouse, in vivo", "result": 40, "unit": "%"}, {"measurement": "prodifferentiating activity, times that of 1α,25(OH)2D3", "setting": "[3]; HL 60 cells", "result": 10, "unit": "times"}, {"measurement": "prodifferentiating effect (in words)", "setting": "[3]; HL 60 cells", "result": "very potent"}, {"measurement": "IN VITRO STUDIES HL 60", "setting": "[3]", "result": 1000, "unit": "%"}]}
{"smiles": "CC(CC#CC(C)(C)O)C1CCC2C(=CC=C3CC(O)C(C)C(O)C3)CCCC21C", "note": "(stereo not drawn) [Compound 103, 2β-methyl-19-nor-23-yn-1α,25-dihydroxyvitamin D3]", "values": [{"measurement": "AFFINITY STUDIES VDR", "setting": "[4]", "result": 20, "unit": "%"}, {"measurement": "IN VITRO STUDIES MCF-7", "setting": "[1]", "result": 900, "unit": "%"}, {"measurement": "Antiproliferative activity on MCF-7 cells", "setting": "[1]", "result": 900, "unit": "%"}, {"measurement": "AFFINITY STUDIES DBP", "setting": "[5]", "result": 1, "unit": "%"}, {"measurement": "IN VIVO STUDIES Osteocalcin serum", "setting": "[2]", "result": 0.8, "unit": "%"}, {"measurement": "IN VIVO STUDIES Calcium serum", "setting": "[2]; mouse, in vivo", "result": 0.4, "unit": "%"}, {"measurement": "IN VIVO STUDIES Calcium urine", "setting": "[2]; mouse, in vivo", "result": 1.6, "unit": "%"}, {"measurement": "Serum calcium in mice", "setting": "[2]; mouse, in vivo", "result": 0.4, "unit": "%"}, {"measurement": "IN VITRO STUDIES HL 60", "setting": "[3]", "result": 100, "unit": "%"}]}
{"smiles": "CC(CC#CC(C)(C)O)C1CCC2C(=CC=C3CC(O)C(C)C(O)C3)CCCC21C", "note": "(stereo not drawn) [Compound 104, 2α-methyl-19-nor-23-yn-1α,25-dihydroxyvitamin D3]", "values": [{"measurement": "AFFINITY STUDIES VDR", "setting": "[4]", "result": 70, "unit": "%"}, {"measurement": "antiproliferative activity, times that of 1α,25(OH)2D3", "setting": "[1]", "result": 100, "unit": "times"}, {"measurement": "antiproliferative effect (in words)", "setting": "[1]", "result": "very potent"}, {"measurement": "IN VITRO STUDIES MCF-7", "setting": "[1]", "result": 10500, "unit": "%"}, {"measurement": "increase of capacity to inhibit the proliferation of MCF-7 cells on introduction of the 23-yne side chain", "setting": "[1]; compared with analogue 102", "result": 26, "unit": "times"}, {"measurement": "AFFINITY STUDIES DBP", "setting": "[5]", "result": 4, "unit": "%"}, {"measurement": "IN VIVO STUDIES Osteocalcin serum", "setting": "[2]", "result": 4, "unit": "%"}, {"measurement": "IN VIVO STUDIES Calcium serum", "setting": "[2]; mouse, in vivo", "result": 10, "unit": "%"}, {"measurement": "prodifferentiating effect (in words)", "setting": "[3]; HL 60 cells", "result": "very potent"}, {"measurement": "IN VITRO STUDIES HL 60", "setting": "[3]", "result": 1500, "unit": "%"}]}
